Measurements: patent US10251943B2, “PLIF multimeric peptides and uses thereof” (Ramot at Tel-Aviv University Ltd., priority 2012, dated 2019)
Entries after “also recorded” stand apart in the source; their conditions may differ. Bridges are numbered along the chain shown (N, C = ends). Roman numbers before positions name the chains, in order. Where no end group is shown, it is not given here.

Experiments:
human T cells (HDMAR) = experiment: Binding to HDMAR human T cell line (detected by anti-C24D IgG); type: cell-based
[1] = system: C48 receptor on human T cells; experiment: Inhibition of C48 binding to HDMAR human T cells (detected by anti-C48 IgG-FITC); type: cell-based; settings: pre-incubation of HDMAR T cells with different concentrations
[2] = system: human PBMC activated with OKT3 MoAb; experiment: Cell stimulation and cytokine production (ELISA of supernatants); type: cell-based; settings: for Level of INF-γ: vs control cultures; for Level of IL-10: vs control cells
Protocol: Peripheral blood mononuclear cells (PBMC) at 2×10^6 in 1 ml of 5% human serum/RPMI-1640 were cultured in a 10 ml round-bottom tube, treated with C48 (2 μg/ml), C24D (10 μg/ml), or non-treated. Subsequently, these cultures were stimulated with OKT3 MoAb (100 ng/ml) or non-stimulated. Supernatants were collected at 24, and 72 hours for analysis of IL-10 and other cytokines as indicated in each experiment.
The ELISA kits for the human cytokines TNF-α, IL-10 and IFN-γ were purchased from DPC, and R&D Systems, USA. These kits were used to quantify the indicated cytokines production in the supernatants, according to the manufacturer's instructions.
(§1) Buffy coats from blood bank donors were layered onto Lymphoprep solution (Nycomed, Oslo, Norway) and spun at 2000 rpm for 20 minutes. The interface layer was collected, washed twice, counted, and resuspended in PBS; pH 7.4 to the desired cell concentration.

[3] = system: MCF-7 human breast cancer cells; experiment: MCF-7 and PBMC co-culture in vitro; type: cell-based
Protocol: The MCF-7 human breast carcinoma cell line was maintained in monolayer cultures in RPMI-1640 medium supplemented with 10% fetal calf serum. For passages, confluent monolayer cultures were trypsinized with trypsin/EDTA solution (0.25%/0.05%, respectively), washed once, and seeded in culture medium.
as §1
MCF-7 was maintained in RPMI+fetal calf serum (FCS) 10%. 1 day before the experimental start, the medium was replaced with RPMI+human AB serum 10%. PBMC (1×10^6) were added to MCF-7 (0.1×10^6) at a final volume of 1 ml dispensed into 24-well plates. The cells were treated with C24D 30 μg/ml at 0, 24 and 48 hours. The cells without treatment were used as a control. Plates were washed, fixed for 1 hour with 4% formaldehyde solution and stained with Giemsa for microscopic evaluation on experimental days 1, 5, and 8.
PBMC were removed from the following cell cultures: a) non-treated control MCF-7+PBMC, b) control (only PBMC cultured with C24D), and c) C24D-treated MCF-7+PBMC. All were transferred to new untreated MCF-7 cell monolayer cultures.

[4] = system: MCF-7 human breast cancer cells; experiment: MCF-7 tumor development in nude mice transfused with human PBMC; type: in vivo, Athymic BALB/c nude mice
Protocol: Athymic BALB/c nude mice were purchased from Harlan Laboratories Ltd. Mice were inoculated subcutaneously (s.c.) with MCF-7 human breast cancer cells (6×10^6), in the presence of an estrogen source (0.72 mg). The slow-release pellets (60-day release) were implanted s.c. into the cervical scapular space.
as §1, with “PBS (pH 7.4)” for “PBS; pH 7.4”, “concentration. Human PBMC (50×10^6/0.5 ml) were injected intravenously after transplantation of MCF-7 tumor cells as described above.” for “concentration.”
In each experiment, mice were divided into groups of five. C24D dissolved in PBS pH 7.2 was injected i.p. to each mouse daily, at an optimal dose of 60 μg/0.2 ml. Control mice received daily injections of PBS.
Tumors were excised, measured, and fixed in phosphate-buffer formalin (pH 7.0) from which paraffin embedded blocks were prepared.
Four-micron tissue sections were cut from paraffin-embedded blocks and mounted on coated super frost plus slides. They were deparaffinized in xylene, and rehydrated with graded alcohols, rinsed in H2O, and then incubated in 3% H2O2 for 10 minutes and washed in H2O.
For antigen unmasking, the sections were heated in 10 mM of sodium citrate buffer (pH 6.0) for 10 minutes in microwaves or pressure chambers, depending on the manufacturer's instructions, and then cooled at room temperature for 20 minutes. Slides were washed in H2O and in PBS buffer for 5 minutes.
Slides were incubated in normal serum for 10 minutes from a kit (Zymed Laboratories, San Francisco, Calif.). For immunohistochemical staining, performed manually, slides were incubated with primary antibodies at previously determined optimal concentrations, for 60 minutes at room temperature, as summarized in Table 4, herein below.
Slides were washed in H2O and in PBS buffer for 5 minutes and further incubated for 10 minutes with a biothylated second antibody (Zymed Laboratories, San Francisco, Calif.), followed by PBS. […]

T47D cells = experiment: T47D and PBMC co-culture in vitro; type: cell-based, human
Protocol: Human ductal breast epithelial tumor cell line (T47D) was maintained in RPMI-1640 medium supplemented with 10% fetal calf serum.
as §1
T47D was maintained in RPMI+FCS 10%. 1 day before the start of the experiment, the medium was replaced with RPMI+AB human serum 10%. PBMCs (1×10^6) were added to T47D (0.1×10^6) at a final volume 1 ml into 24-well plates. The cells were treated with C24D (30 μg/ml) at 0, 24 and 48 hours. The cells without treatment were used as a control. Plates were washed, fixed for 1 hour with 4% formaldehyde solution and stained with Giemsa for microscopic evaluation on experimental days 1, 5, and 8.
After five days of primary culture with T47D and C24D, PBMCs (1 million) were added to fresh T47D (0.1 million) at a final volume 1 ml into 24-well plates. The cells were treated with C24D (30 μg/ml) at 0, 24 and 48 hours. After 4 days of culture, the cells were examined. […] The ratio between T47D and PBMCs was 1:10. Two days after incubation the cells were examined as illustrated in FIGS. 20A-B.

human macrophages = experiment: Binding to the surface of human macrophages (FITC-labelled antibody detection); type: cell-based; settings: detected by mouse anti-C24D IgG-FITC and rabbit anti-C48 IgG-FITC
pregnancy development = settings: vaccination of mice prior to mating; cited from earlier work

Row | Substance | Binding to the surface of human T cells (HDMAR) (human T cells (HDMAR)) | Inhibition of the binding of C48 to T cells [1] | Level of INF-γ in the presence of C48 ([2]; 72 hours, together with C48) | Level of INF-γ ([2]; 72 hours) | Level of IL-10 when added together with C48 ([2]; culture together with C48) | Level of IL-10 [2] | MCF-7 cell monolayer lysis (Giemsa staining) ([3]; MCF7 incubated with PBMC for 5 days) | Lysis of MCF-7 cancer cells ([3]; MCF-7 and PBMC (1:10) cultured 8 days at 37° C., C24D 30 μg/ml) | Cytotoxic effect and growth inhibition of MCF-7 cells ([3]; MCF-7 cultured with human PBMC for 5-8 days) | Cytotoxicity of transferred PBMC on secondary untreated MCF-7 culture ([3]; PBMC removed from C24D-treated MCF-7+PBMC cultures) | Tumor growth ([4]; Nude mice transfused with human lymphocytes and engrafted with MCF-7, vs PBS) | Mean tumor volume ([4]; after 19 days, daily i.p. 60 μg, nude mice with MCF-7 and human PBMC) | Tumoral necrosis (histochemical analysis) ([4]; tumors removed from treated mice vs control) | T47D tumor cell lysis (T47D cells; 7 days of incubation with C24D and PBMCs) | Cytotoxicity on secondary T47D culture (T47D cells; PBMCs from 5-day primary culture added to fresh T47D, C24D 30 μg/ml, 4 days) | Lysis of T47D cancer cells (T47D cells; T47D and PBMC (1:10) cultured 5 days at 37° C.) | Binding to the surface of human macrophages (human macrophages) | Pregnancy development (pregnancy development)
1 | C24-48M: monomeric synthetic polypeptide comprising the C48 terminal amino acids (aa) 24-48 (HHLLRPRRRKRPHSIPTPILIFRSP) [reference compound] | does not |  |  |  |  |  |  |  |  |  |  |  |  |  |  |  |  | 
2 | C24D: covalently linked dimer of identical polypeptide chains, each SEQ ID NO: 1 plus N-terminal Cysteine and Glycine; SEQ ID NO: 102 (chain 1 CGHHLLRPRRRKRPHSIPTPILIFRSP; chain 2 CGHHLLRPRRRKRPHSIPTPILIFRSP; disulfide I:1-II:1) | bind similarly to the surface of human T cells; also recorded: binds to the surface of human T cells | inhibits the binding of C48 to T cells | increased significantly | increased significantly; also recorded: high levels of INF-γ | decreased the high level of IL-10 | did not increase the level of IL-10 | monolayer lysis | resulted in lysis of the cancer cells | cytotoxic effect and tumor cell growth inhibition | cytotoxic to the tumor cells | inhibited significantly the tumor growth; also recorded: tumor growth inhibition and cytotoxicity | 42.5±14 mm^3 | Large areas of tumoral necrosis | An increase in tumor cell lysis | cytotoxic effect | resulted in lysis of the cancer cells |  | 
3 | C48: subcloned recombinant C-terminal 48 amino acids of PLIF, its bioactive domain (SEQ ID NO: 100) (FPSPISPSPSCWHHYTTNRPQPQHHLLRPRRRKRPHSIPTPILIFRSP; Placental Immunoregulatory Ferritin (PLIF), C′, derived peptide C48) | bind similarly to the surface of human T cells |  |  | did not affect the INF-γ level; also recorded: no INF-γ |  | high level of IL-10; also recorded: high IL-10 levels |  |  |  |  |  |  |  |  |  |  | binds to the surface of human macrophages | prevented pregnancy development
